Experimental data as given in PMC12948223, “HSP70 Interactome‐Mediated Proteolysis Targeting Chimera (HSP70‐PROTAC) for Ferroptosis‐Driven Cancer Treatment” (Advanced Science, 2025).
Read-outs that look alike come from different tables or passages of the source.

Tests used:
HT1080 xenograft tumor = HT1080 xenograft tumor mouse model, antitumor efficacy and safety; format: in vivo; settings: for TGI (tumor growth inhibition): 17 days
Protocol: Motivated by the aforementioned in vitro findings, we subsequently sought to evaluate the in vivo antitumor efficacy of GDAz‐3 using an HT1080 xenograft tumor mouse model. The tumor‐bearing mice were randomly divided into six groups, minimizing weight and tumor size differences among the groups (n = 6 in each group). The treatment group mice were administered once daily by intraperitoneal injection (IP) with GDAz‐3 at a dosage of 30 or 60 mg kg^−1, while the control group animals were treated with the corresponding solvent, ML162, and apoptozole at a dosage of 30 mg kg^−1. Additionally, we set up a drug combination group to confirm the superiority of GDAz‐3. After treatment for 17 days, animals were humanely euthanized and the tumors were excised (Figure 7B). […] The advantage of the safety of GDAz‐3 was also determined by the hematoxylin and eosin (H&E) staining. […] In general, compared with the single inhibitor or their combination, the in vivo antitumor study confirmed the efficacy and safety of GDAz‐3.
The experimental procedures of the animal experiments were permitted by the Hangzhou Institute of Medicine (HIM), Chinese Academy of Sciences (AP2024‐07‐0010). Male BALB/c nude mice (6 weeks old) were housed under pathogen‐free conditions, maintained at a constant room temperature, and fed standard rodent chow and water. An HT1080 fibrosarcoma xenograft model in nude mice was established through subcutaneous transplantation. When the tumors emerged, the mice were randomly divided into six groups with six mice in each group: GDAz‐3‐treated at 30 or 60 mg kg^−1 group and control groups, including the vehicle group, and each of the two inhibitor‐treated groups (ML162 and apoptozole) at 30 mg kg^−1, and their combinations. The mice were intraperitoneally (IP) injected daily according to their body weight. Body weight and tumor size were measured every other day, and the tumor volume and body weight were recorded every other day after drug treatment. After treatment, the animals were euthanized by cervical dislocation, and the tumor bulks were peeled off and weighed. The organ tissues (tumor, heart, liver, spleen, lung, and kidney) were harvested and fixed with 4% paraformaldehyde for hematoxylin‐eosin (H&E) and immunohistochemistry (IHC) staining. In addition, the expression of GPX4 in tumor samples was analyzed in vehicle‐ and GDAz‐3‐treated groups by western blot assay.

GPX4 [1] = biological target: T1, GPX4 (Homo sapiens, UniProt P36969); assay: GPX4 degradation by western blot in HT1080 cells; format: cell-based; design: determine the changes in the endogenous levels of GPX4 by western blot assay; endogenous in cells; host or cells: HT1080 fibrosarcoma cells, including siRNA-knockdown derivatives; settings: for remaining activity at 0.5 µM: HT-1080, HT1080 cells, read-out: GPX4 % of control; for remaining activity at 1 µM: read-out: % of control (GPX4/GAPDH)
T1 sequence (P36969 1-170 isoform P36969-2): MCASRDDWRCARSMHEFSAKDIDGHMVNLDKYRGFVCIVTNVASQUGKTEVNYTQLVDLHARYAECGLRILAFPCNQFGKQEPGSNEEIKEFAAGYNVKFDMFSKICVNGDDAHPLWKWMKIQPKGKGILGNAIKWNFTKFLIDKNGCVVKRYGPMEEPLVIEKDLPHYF
Outline: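 HT1080 fibrosarcoma cells were treated 24 h with PROTACs at 0.1, 0.3, 1 and 3 µM. Endogenous GPX4 was measured by western blot of RIPA lysates, with band intensities normalized to a loading control.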

GPX4 [2] = biological target: T2, GPX4 (Mus musculus, UniProt O70325); assay: GPX4 degradation by western blot in B16-F10 cells; format: cell-based; settings: 3 µM, 24 h
T2 construct: endogenous in cells; host or cells: B16-F10
T2 sequence (O70325 1-170 isoform O70325-2): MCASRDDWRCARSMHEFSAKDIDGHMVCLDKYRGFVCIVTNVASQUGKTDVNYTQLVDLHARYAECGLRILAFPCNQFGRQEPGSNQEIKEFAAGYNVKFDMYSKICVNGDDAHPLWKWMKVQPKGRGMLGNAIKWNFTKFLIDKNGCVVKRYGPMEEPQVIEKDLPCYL
Protocol: To further confirm this degradation efficacy, an in‐cell western (ICW) assay, a quantitative immunofluorescence cell‐based technique, was performed to quantify the relative expression level of GPX4 after treatment with GDAz‐3 for 24 h. […] Given the promising GPX4 degradation activity of GDAz‐3, we extended our evaluation to additional ferroptosis‐sensitive cell lines, including triple‐negative breast cancer cells (MDA‐MB‐231) and melanoma cells (mouse B16‐F10). […] Based on the observation that GDAz‐3 was particularly effective in HT1080 cells, we selected this cell line for further degradation mechanism and ferroptosis pharmacodynamics studies.
Cells were seeded at a density of 4 × 10^5 cells well^−1 in 6‐well plates and allowed to incubate overnight. Cells were incubated with the indicated treatments. Thereafter, the cells were collected and lysed with RIPA buffer containing serine protease and phosphatase inhibitors for 30 min on ice. Proteins were quantified by using a BCA protein assay kit (Beyotime). […] Ultimately, the membrane was washed five times, and the antibody‐protein complexes were visualized using an ECL luminescence reagent (Biosharp, Shanghai, China). The relative intensities of the bands were analyzed by ImageJ and normalized to a loading control.

COc1ccc(-c2nc(-c3cc(C(F)(F)F)cc(C(F)(F)F)c3)n(Cc3ccc(C(=O)NCCOCCOCCOCCn4cc(COc5ccc(N(C(=O)CCl)C(C(=O)NCCc6ccccc6)c6cccs6)cc5Cl)nn4)cc3)c2-c2ccc(OC)cc2)cc1 (centres unmarked) [GDAz-3, 4-((2-(3,5-bis(trifluoromethyl)phenyl)-4,5-bis(4-methoxyphenyl)-1H-imidazol-1-yl)methyl)-N-(2-(2-(2-(2-(4-((2-chloro-4-(2-chloro-N-(2-oxo-2-(phenethylamino)-1-(thiophen-2-yl)ethyl)acetamido)phenoxy)methyl)-1H-1,2,3-triazol-1-yl)ethoxy)ethoxy)ethoxy)ethyl)benzamide]
TGI (tumor growth inhibition) (HT1080 xenograft tumor; 30 mg/kg IP once daily): 52% | TGI (tumor growth inhibition) (HT1080 xenograft tumor; 60 mg/kg IP once daily): 67% | Body weight of the mice (HT1080 xenograft tumor; 30 or 60 mg/kg IP once daily): did not obviously reduce the body weight | H&E staining of major organs (heart, liver, spleen, lung, kidney) (HT1080 xenograft tumor; GDAz-3-treated group): did not observe significant toxic changes in the major organs | GPX4 degradation in wild-type and CRBN- or VHL-knockdown HT1080 cells (GPX4 [1]; 0.5 µM, 24 h): promoted the degradation of GPX4 | GPX4 degradation in BAG3-knockdown cells (GPX4 [1]; BAG3 siRNA HT1080 cells, 24 h): completely abolished | GPX4 degradation in CHIP-knockdown cells (GPX4 [1]; CHIP siRNA HT1080 cells, 24 h): did not induce any detectable protein degradation of GPX4 | Reduction of the GPX4 protein level (GPX4 [1]; HT1080 cells, 0.1 µM, 24 h): ≈ 50% | GPX4 degradation (GPX4 [1]; HT1080 cells, 0.3 µM, 24 h (Figure 3A)): effectively triggered substantial GPX4 degradation | Sustained GPX4 degradation upon washout (GPX4 [1]; HT1080 cells, 1 µM for 24 h, then rinsed with PBS): without obvious recovery even 24 h after removal of the degrader | GPX4 protein level, degradation kinetics (GPX4 [1]; HT1080 cells, 1 µM, 8 h): obviously reduced GPX4 protein level | GPX4 degradation efficiency versus reported GPX4 degraders (GPX4 [1]; HT1080 cells, 1 µM, 24 h): comparable GPX4 degradation efficiency | GPX4 protein level, degradation kinetics (GPX4 [1]; HT1080 cells, 1 µM, 24 h): complete GPX4 depletion | DC50 (GPX4 [1]; HT1080 cells, 24 h): 130 nM | GPX4 degradation effect in combination with 3-methyladenine (3-MA) (GPX4 [1]; HT1080 cells, 24 h): partially rescued | GPX4 degradation effect after proteasome inhibitor (GPX4 [1]; HT1080 cells, MG132 5 µM for 2 h before GDAz-3 for 24 h): completely abrogated | remaining activity at 0.5 µM (GPX4 [1]; GDAz-3 0.5 µM 12 h after pre-treatment with MLN4924 2.5 µM for 2 h): 61% | remaining activity at 0.5 µM (GPX4 [1]; GDAz-3 0.5 µM, 12 h): 45% | remaining activity at 1 µM (GPX4 [1]; HT-1080, HT-1080, 1 µM, 24 h): 45% | remaining activity at 1 µM (GPX4 [1]; HT-1080, HT-1080-siRNA-LAMP2A (LAMP2A knockdown), 1 µM, 24 h): 68% | GPX4 degradation in Hsc70-knockdown cells (GPX4 [1]; Hsc70 siRNA HT1080 cells, 1 µM, 24 h): markedly abrogated | GPX4 degradation in Hsp70-knockdown cells (GPX4 [1]; Hsp70 siRNA HT1080 cells, 24 h): not affected | GPX4 level (GPX4 [2]): markedly decreased GPX4 level
